# Measurements from patent publication US7566710B2, “Dual molecules containing a peroxide derivative, synthesis and therapeutic applications thereof” (Centre National de la Racherche Scientifique (C.N.R.S.), priority 2000, dated 2009).
# “And” between values parts separate entries of the source, which are not always exact repeats. Equal entries are not always repeated. “Also recorded” adds a separate entry of the source. Where two headings read alike, the source gives them in different places.
# Key:
# [1] = tested on: P. falciparum FcB1-Colombia (chloroquine resistant strain); assay: Anti-malarial activity on P. falciparum FcB1-Colombia strain, tritiated hypoxanthine incorporation; assay type: cell-based, Plasmodium falciparum
# Protocol: The P. falciparum strains are cultured continuously according to Trager and Jensen's method 5, with the following modifications 6: the parasites are maintained in human red blood cells (O±), diluted to 1% haematocrit in RPMI 1640 medium supplemented with 25 mM Hepes+30 mM NaHCO3 and complemented with 5% AB+ human serum. The parasite populations are synchronised over a 4 hour period by flotation with a gelatine solution, followed by lysis with 5% D-sorbitol 7,8. […]. The anti-malarial activity tests are performed using Desjardins' radioactive micromethod 11. The tests are performed in triplicate, in 96-well microplates, the readings being at 1% haematocrit and 0.5-1% parasitaemia. For each test, the parasites are incubated with decreasing concentrations of drug for either 32 hours and 72 hours (4 wells contain chloroquine diphosphate as a reference). The first dilution of the drug is performed at 10 mg/ml in dimethylsulphoxide and the following dilutions are made with RPMI 1640. The parasite growth is measured with the incorporation of tritiated hypoxanthine compared to incorporation in the absence of drug (taken to be 100%). 12 and the IC50 values are determined graphically by plotting the percentage of inhibition as a function of the drug concentration.
# [2] = tested on: P. falciparum Nigerian (chloroquine susceptible strain); assay: Anti-malarial activity on P. falciparum Nigerian strain, tritiated hypoxanthine incorporation; assay type: cell-based, Plasmodium falciparum
# Protocol: (§1) The parasite populations are synchronised over a 4 hour period by flotation with a gelatine solution, followed by lysis with 5% D-sorbitol 7,8. […] The anti-malarial activity tests are performed using Desjardins' radioactive micromethod 11. The tests are performed in triplicate, in 96-well microplates, the readings being at 1% haematocrit and 0.5-1% parasitaemia. For each test, the parasites are incubated with decreasing concentrations of drug for either 32 hours and 72 hours (4 wells contain chloroquine diphosphate as a reference). […] The parasite growth is measured with the incorporation of tritiated hypoxanthine compared to incorporation in the absence of drug (taken to be 100%). 12 and the IC50 values are determined graphically by plotting the percentage of inhibition as a function of the drug concentration.
# P. falciparum in culture = assay: In vitro activity on P. falciparum in culture; assay type: cell-based; details: Plasmodium falciparum, read-out: LC50
# P. vinckei = assay: 4 day test in mice infected with P. vinckei; assay type: in vivo; details: intraperitoneal route, for 2 months
# E. coli GE864 = assay: Mutagenicity, SOS response (DNA repair induction) in E. coli GE864; assay type: cell-based; details: E. coli GE864, 5, 10, 15 and 20 μM; control 3 μM mitomycin C
# [3] = Toxicity after administration to healthy mice; details: 100 mg/kg/day oral route, three consecutive days
# [4] = tested on: three Plasmodium falciparum strains; assay: Anti-malarial activity, summary over the Nigerian, FcB1 and FcM29 strains; assay type: cell-based; details: susceptible and resistant strains
# Protocol: as §1
# [5] = tested on: human Plasmodium falciparum isolates; assay: Activity on human Plasmodium falciparum isolates; assay type: cell-based
# Protocol: Trioxaquine-citrate 4, referred to as DU-1102, was tested on human Plasmodium falciparum isolates, some of which were chloroquine- and/or pyrimethamine-resistant.
# [6] = tested on: P. falciparum FcB1-Colombia (chloroquine resistant strain); details: read-out: IC50 for chloroquine, FcB1-Columbia strain, literature refs 9,10; cited from earlier work
# [7] = tested on: P. falciparum FcM29-Cameroon (highly chloroquine resistant strain); details: read-out: IC50 for chloroquine, literature refs 9,10; cited from earlier work
# [8] = tested on: P. falciparum FcM29-Cameroon (highly chloroquine resistant strain); assay: Anti-malarial activity on P. falciparum FcM29-Cameroon strain, tritiated hypoxanthine incorporation; assay type: cell-based, Plasmodium falciparum
# Protocol: as §1
# [9] = FcB1-Colombia (CQR), 32 hrs, read-out: IC50
# [10] = FcB1-Colombia (CQR), 72 hrs, read-out: IC50
# [11] = Nigerian (CQS), 32 hrs, read-out: IC50
# [12] = Nigerian (CQS), 72 hrs, read-out: IC50
smiles,measurement,setting,value
"NCCNc1ccnc2cc(Cl)ccc12 [Quinoline-amine1, 7-chloro-4-[N-(2-aminoethyl)amino]-quinoline]",IC50,"[1]; Plasmodium falciparum, FcB1-Colombia (CQR), 32 hrs, read-out: IC50",0.035 µg/mL
same,IC50,"[1]; Plasmodium falciparum, FcB1-Colombia (CQR), 72 hrs, read-out: IC50",0.02 µg/mL
same,IC50,"[2]; Plasmodium falciparum, Nigerian (CQS), 32 hrs, read-out: IC50",33 ng/mL
same,IC50,"[2]; Plasmodium falciparum, Nigerian (CQS), 72 hrs, read-out: IC50",7 ng/mL
CC(C)C1=CC2OC3(CCC(NCCNc4ccnc5cc(Cl)ccc45)CC3)OOC2(C)CC1.O=C(O)CC(O)(CC(=O)O)C(=O)O.O=C(O)CC(O)(CC(=O)O)C(=O)O (centres unmarked) [DU-1302],LC50,P. falciparum in culture,6 nM
same,re-emergence,P. vinckei,no observable re-emergence
same,"mutagenicity, induction of DNA repair (SOS response)",E. coli GE864,Absence of mutagenicity
same,apparent toxicity,[3],does not show any apparent toxicity
Clc1ccc2c(NCCNC3CCC4(CC3)OOC3(c5ccccc5)CC(c5ccccc5)=CC3O4)ccnc2c1.O=C(O)CC(O)(CC(=O)O)C(=O)O.O=C(O)CC(O)(CC(=O)O)C(=O)O (centres unmarked) [Trioxaquine 4],IC50,"[1]; FcB1-Colombia (CQR), 32 hrs",0.035 µg/mL
same,IC50,[1]; [9],37 nM
same,IC50,"[1]; FcB1-Colombia (CQR), 72 hrs",0.02 µg/mL
same,IC50,[1]; [10],21 nM
same,IC50,"[2]; Nigerian (CQS), 32 hrs",33 ng/mL
same,IC50,[2]; [11],35 nM
same,IC50,"[2]; Nigerian (CQS), 72 hrs",7 ng/mL
same,IC50,[2]; [12],8 nM
same,activity compared with chloroquine and the two fragments,[4],"significantly greater than the activity of not only chloroquine, but also of each of the two fragments"
same,IC50 geometric mean,[5],41 ng/mL
same,"relation of activity to susceptibility or resistance to other anti-malarial agents (chloroquine, pyrimethamine)",[5]; listed as DU-1102,independent of their susceptibility or their resistance; also recorded: no correlation
same,IC50,[5]; read-out: IC50 geometric mean,43 nM
Clc1ccc2c(NCCCCNC3CCC4(CC3)OOC3(c5ccccc5)CC(c5ccccc5)=CC3O4)ccnc2c1 (mixture of isomers) [Trioxaquine 9],activity compared with chloroquine and the two fragments,[4],"significantly greater than the activity of not only chloroquine, but also of each of the two fragments"
O=C1CCC2(CC1)OOC1(c3ccccc3)CC(c3ccccc3)=CC1O2 (centres unmarked) [Trioxane-ketone 2],IC50,[1]; [9],113 nM
same,IC50,[1]; [10],36 nM
same,IC50,[2]; [11],149 nM
same,IC50,[2]; [12],45 nM
CCN(CC)CCCC(C)Nc1ccnc2cc(Cl)ccc12 (centres unmarked) [chloroquine],IC50,[6],> 100 nM
same,IC50,[7],> 100 nM
CCN(CC)CCCC(C)Nc1ccnc2cc(Cl)ccc12 (centres unmarked) [Chloroquine diphosphate],IC50,"[1]; Plasmodium falciparum, FCB1, 32 h",0.075 µg/mL
same,IC50,"[1]; Plasmodium falciparum, FCB1, 72 h",0.06 µg/mL and 116 nM
same,IC50,"[8]; Plasmodium falciparum, 32 h",0.1 µg/mL and 194 nM
same,IC50,"[8]; Plasmodium falciparum, 72 h",0.08 µg/mL and 155 nM
same,IC50,"[2]; Plasmodium falciparum, 32 h",0.045 µg/mL and 87 nM
same,IC50,"[2]; Plasmodium falciparum, 72 h",0.01 µg/mL and 19 nM
Clc1ccc2c(NCCNC3CCC4(CC3)OOC3(c5ccccc5)CC(c5ccccc5)=CC3O4)ccnc2c1 (mixture of isomers) [Trioxaquine 3],IC50,[1]; [10],9 nM
same,IC50,"[8]; FcM29-Cameroon (CQR+), 72 hrs, read-out: IC50",18 nM
same,IC50,"[2]; Nigerian (CQS), 32 hrs",1 ng/mL
same,IC50,[2]; [11],1.8 nM
same,activity compared with chloroquine and the two fragments,[4],"significantly greater than the activity of not only chloroquine, but also of each of the two fragments"
